Legend:
[1] = test system: IFN-α signaling pathway; assay: High-Throughput Integrated Transcriptional Screening (HITS), qPCR of IFN-α signature gene set in THP-1 cells; assay type: cell-based, human; settings: compound 10 μM, 100 IU/ml IFN-α 4 h, a gene inhibited by more than 50% gets its maximum score, scores added, hit if greater than 50% of maximum
Description: The unique gene expression signature of the IFN-α signaling pathway was established in THP-1 cells by comparing the gene profiles of the fully activated IFNα pathway to the basal gene expression. THP-1 cells were stimulated either with 100 IU/ml IFN-α, 100 IU/ml IFN-γ, or 10 ng/ml TNF-α to generate the activated pathway gene signatures.
In one embodiment, the compounds of Table 1 were used to identify different mechanisms of action as identified from primary screening. If a gene is inhibited by more than 50% then it receives its maximum score (all or none type of scoring).
THP-1 cells seeded at 8×10^5 cells/ml were treated with either compound (10 μM final concentration) or vehicle control (0.1% DMSO) for 30 minutes prior to a four hour stimulation with 100 IU/ml IFN-α or PBS. Plates were incubated at 37° C. in a humidified incubator. Cell lysis and RNA isolation were carried out according to the manufacturer's instructions (TurboCapture mRNA Kit, Qiagen Inc.). PCR primer pairs were designed for each of the genes identified through the global gene expression analysis using Primer 3 based method (see below for primer sequences). Each primer was evaluated for the efficient production of a single band of appropriate size in the presence of template RNA and the lack of distinct amplification products in a non-template control. Real time PCR reactions were carried out in SYBR green master mix (Quanta biosciences) on ABI9700 thermocyclers.
We used the house keeping gene, GAPDH, as the normalization control for the IFN-α gene signature set to correct the overall variability in the qPCR based HITS process. The corrected profiles were then normalized to the basal gene expression levels determined by using the vehicle only treatments. We subtracted the vehicle only control gene value from the test compound gene profiles, gene per gene (see FIG. 1).

[2] = test system: SLE-associated gene signature as induced by SLE serum; assay: SLE serum-induced IFN-α gene signature in freshly isolated monocytes (HITS qPCR); assay type: cell-based, human
Excerpt: RNA from lysed cells was examined by qPCR analysis in HITS assay. […] Each bar represents the average+/−SEM of three independent experiments using serum from different SLE patients.
Stimulation of healthy donor PBMCs with serum isolated from SLE patients induces the up-regulation of IFN-α pathway-associated genes (Interfon-induced genes, IFIGs), such as MX1^31. Furthermore, expression of IFIG correlates with disease severity and organ involvement^31, 32. To further evaluate the role of small molecular inhibitors on the type I IFN gene signature, freshly isolated monocytes stimulated with 50% lupus serum were used in HITS assays. […] Importantly, these experiments were performed with SLE serum from patients with well characterized biochemical profiles.
SLE patient and control serum were purchased from Bioreclamation (Hicksville, N.Y.). IFN-α 2a was obtained from PBL Biomedical laboratories (Piscataway, N.J.). Fresh PBMCs from healthy donor were prepared by Ficoll-hypaque fraction according to the manufactory's instruction. Cells were cultured at 2×10^5 cells/0.1 ml in 96-well flat-bottomed plates in culture medium.
To determine the effect of compounds on gene expression, compounds and vehicle controls were pre-incubated with cells for 30 min at 37° C. before stimulation with 50% lupus serum or 100 IU/ml IFN-α 2a were incubated with PBMC. After 6 h stimulation, cells were lysed in Qiagen 2XTCL lysis buffer followed by HITS analysis (see FIG. 2).

[3] = test system: CD80, CD123 and CD38 cell surface expression on monocytes; assay: IFN-α induced primary human monocyte activation/differentiation, cell surface markers by FACS; assay type: cell-based; settings: 500 IU/ml IFN-α, 48 h, FACS (FIG. 5)
Description: Freshly isolated monocytes from healthy donor were pre-incubated with compounds or vehicle control for 0.5 hour before stimulation with 500 IU/ml IFN-α. Cell surface expression of CD80, CD123 and CD38 was evaluated by FACS 48 h post-stimulation. Each bar represents the average+/−SEM of three independent experiments.
Since deregulated differentiation of DCs induced by IFN-α may be a critical contributing factor in SLE^13, the impact of Apicidin 1a, IKK2 inhibitor IV, and JAK inhibitors in DC differentiation was examined. Human monocytes were stimulated with IFN-α and the expression of CD38 CD80 and CD123 differentiation markers was monitored^33.
(§1) For monocyte differentiation assays, human monocytes were isolated from the blood of healthy donors according to manufactory's instructions (Miltenyi Biotec Inc; Auburn Calif.). 5×10^5 freshly prepared monocytes were pre-incubated with compounds or vehicle control for 30 min. Cells were then incubated in RPMI 1640 medium (Invitrogen, Carlsbad, Calif.) including 10% fetal calf serum (Invitrogen) supplemented with 500 IU/ml IFN-α 2a for 48 hr. Cell surface protein were stained with FITC-labeled anti-CD80, PE-labeled anti-CD123, PEcy7 labeled anti-CD38, APC cy7 labeled MHC class II (all BD, San Jose, Calif.) and analyzed on a FACS Calibur flow cytometer (BD). Cytokine and chemokine levels in supernatants from monocyte differentiation assays were measured using searchlight human cytokine array (Pierce Inc, Woburn, Mass.). (see FIG. 5)

[4] = test system: IP-10; assay: IFN-α induced IP-10 secretion from human monocytes; assay type: cell-based; settings: 500 IU/ml IFN-α, 48 h (FIG. 6A)
Description: (§2) Freshly isolated monocytes were treated with 500 IU/ml IFN-α with or without indicated compounds for 48 h. Supernatants were collected and MCP-1 and IP-10 levels were analyzed by Searchlight Inc. Percentage inhibition represents inhibition of the upregulation of chemokine induced by IFN-α compared to the vehicle control. Panel A: Effect of compounds on IP-10 secretion. Panel B: Effect of compounds on MCP-1 secretion. Each bar represents the average+/−SEM of three independent experiments. Panel C: IKK2 inhibitor IV blocked IFN-α induced IP-10 protein level in vivo. Female NZBW/F1 mice were treated with either antibody (i.p. injection 30 mg/kg) or IKK2 inhibitor (45 mg/kg BID) as described in materials and methods. Adenovirus-IFN-a (1×10^10 viral particles) was administrated i.v. at time 0. Samples were collected 6 h post-stimulation, IP-10 protein level was measured by ELISA. Data representative of two experiments.
(§3) Multiple chemokines, including monocyte chemo-attractant protein-1 (MCP-1) and activated T cell chemokine interferon inducible protein 10 (IP-10) regulate leukocytes migration and infiltration into inflammated organs^34. Expression of MCP-1 and IP-10 are elevated in serum of SLE patients^34, 35 and in monocytes of healthy donors stimulated in vitro by IFN-α^36. Consequently, the effect of Apicidin 1a, IKK2 inhibitor IV, and JAK inhibitors in IP-10 and MCP-1 expression induced by IFN-α from human monocytes was examined.
as §1, with “Cells were then incubated in RPMI 1640 medium (Invitrogen, Carlsbad, Calif.) including 10% fetal calf serum (Invitrogen) supplemented with 500 IU/ml IFN-α 2a for 48 hr.” left out, “(see FIG. 5)” left out

[5] = test system: MCP-1; assay: IFN-α induced MCP-1 secretion from human monocytes; assay type: cell-based; settings: 500 IU/ml IFN-α, 48 h (FIG. 6B)
Description: as §2, §3
as §1, with “Cells were then incubated in RPMI 1640 medium (Invitrogen, Carlsbad, Calif.) including 10% fetal calf serum (Invitrogen) supplemented with 500 IU/ml IFN-α 2a for 48 hr.” left out, “(see FIG. 5)” left out

[6] = test system: freshly isolated monocytes; assay: Cytotoxicity at the concentration used in the SLE serum monocyte assay; assay type: cell-based, human; settings: 1 μm

## O=C(CCCCCN1C(=O)c2cccc3cccc(c23)C1=O)NO [Compound 3, scriptaid]
[1]
  HTS Score: 0.88

## CC(/C=C/C(=O)NO)=C\[C@@H](C)C(=O)c1ccc(N(C)C)cc1 [Compound 4, Trichostatin A]
[1]
  HTS Score: 1

## CC(C)(C)c1nc2c3ccc(F)cc3c3c(=O)[nH]ccc3c2[nH]1 [Compound 7, JAK Inhibitor I]
[1]
  HTS Score: 0.9
[2]; 1 μm, monocytes stimulated with 50% SLE patient serum, mean of six genes vs vehicle control
  Percentage inhibition of the six most robustly induced IFN-α signature genes induced by SLE serum: 60%
[2]; freshly isolated monocytes, dose dependent (FIG. 4)
  Upregulation of the six most robustly induced IFN-α signature gene set by 50% lupus serum (in words): blocked the upregulation
[3]
  CD38 expression: dose-dependent inhibition
  CD80 expression: dose-dependent inhibition
  CD123 expression: dose-dependent inhibition
[4]
  Expression of IP-10 induced by IFN-α: block the expression of IP-10
[5]
  MCP-1 expression induced by IFN-α: restricted to the highest dose
[6]
  Cytotoxicity: did not exhibit cytotoxicity

## C=CC(=O)C1=CC2C=CC=CC2C=C1 (stereo not shown) [Compound 8, JAK3 Inhibitor V]
[1]
  HTS Score: 0.79

## Oxamflatin [Compound 1]
[1]
  HTS Score: 1

— patent US20100093611A1, “COMPOUNDS AND METHODS FOR TREATING OR PREVENTING AUTOIMMUNE DISEASES” (priority 2007, published 2010)
